Biological target: T1, caspase-3 (Homo sapiens, UniProt P42574)
T1 construct: gene CASP3; recombinant active caspase-3 enzyme
T1 sequence (P42574 29-175): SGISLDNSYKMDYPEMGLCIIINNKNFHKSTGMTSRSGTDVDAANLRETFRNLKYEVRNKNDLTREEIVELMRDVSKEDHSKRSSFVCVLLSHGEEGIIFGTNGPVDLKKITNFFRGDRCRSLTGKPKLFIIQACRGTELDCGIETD
T1 sequence (P42574 176-277): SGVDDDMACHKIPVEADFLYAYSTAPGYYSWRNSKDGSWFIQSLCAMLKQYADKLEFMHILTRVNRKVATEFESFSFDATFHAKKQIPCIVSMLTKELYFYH
Assay: recombinant caspase-3 activity assay with luminogenic Z-DEVD-aminoluciferin (Caspase-Glo […]), dose response
Type: biochemical

Compound: O=c1c(O)c(-c2ccc(O)cc2)oc2cc(O)cc(O)c12 [kaempferol]
- IC50: 5.65 µM

— PMC5794799, “Kaempferol mitigates Endoplasmic Reticulum Stress Induced Cell Death by targeting caspase 3/7” (Scientific Reports, 2018)
